Assays:
ALK enzyme = biological target: T1, ALK enzyme (Homo sapiens, UniProt Q9UM73); experiment: ALK enzymatic activity assay 1; type: biochemical
T1 construct: purchased Invitrogen PV4185

[1] = biological target: EML4-ALK wt v1 in NIH-3T3 cells (Homo sapiens, UniProt Q9UM73)
cMet enzyme = biological target: T2, cMet enzyme (Homo sapiens, UniProt P08581); experiment: cMet enzymatic activity assay; type: biochemical; conditions: purified cMet enzyme 7.5 nM, ATP 17 μM (Km)
T2 construct: RTC Lot#032006
T2 sequence (P08581 25-1390): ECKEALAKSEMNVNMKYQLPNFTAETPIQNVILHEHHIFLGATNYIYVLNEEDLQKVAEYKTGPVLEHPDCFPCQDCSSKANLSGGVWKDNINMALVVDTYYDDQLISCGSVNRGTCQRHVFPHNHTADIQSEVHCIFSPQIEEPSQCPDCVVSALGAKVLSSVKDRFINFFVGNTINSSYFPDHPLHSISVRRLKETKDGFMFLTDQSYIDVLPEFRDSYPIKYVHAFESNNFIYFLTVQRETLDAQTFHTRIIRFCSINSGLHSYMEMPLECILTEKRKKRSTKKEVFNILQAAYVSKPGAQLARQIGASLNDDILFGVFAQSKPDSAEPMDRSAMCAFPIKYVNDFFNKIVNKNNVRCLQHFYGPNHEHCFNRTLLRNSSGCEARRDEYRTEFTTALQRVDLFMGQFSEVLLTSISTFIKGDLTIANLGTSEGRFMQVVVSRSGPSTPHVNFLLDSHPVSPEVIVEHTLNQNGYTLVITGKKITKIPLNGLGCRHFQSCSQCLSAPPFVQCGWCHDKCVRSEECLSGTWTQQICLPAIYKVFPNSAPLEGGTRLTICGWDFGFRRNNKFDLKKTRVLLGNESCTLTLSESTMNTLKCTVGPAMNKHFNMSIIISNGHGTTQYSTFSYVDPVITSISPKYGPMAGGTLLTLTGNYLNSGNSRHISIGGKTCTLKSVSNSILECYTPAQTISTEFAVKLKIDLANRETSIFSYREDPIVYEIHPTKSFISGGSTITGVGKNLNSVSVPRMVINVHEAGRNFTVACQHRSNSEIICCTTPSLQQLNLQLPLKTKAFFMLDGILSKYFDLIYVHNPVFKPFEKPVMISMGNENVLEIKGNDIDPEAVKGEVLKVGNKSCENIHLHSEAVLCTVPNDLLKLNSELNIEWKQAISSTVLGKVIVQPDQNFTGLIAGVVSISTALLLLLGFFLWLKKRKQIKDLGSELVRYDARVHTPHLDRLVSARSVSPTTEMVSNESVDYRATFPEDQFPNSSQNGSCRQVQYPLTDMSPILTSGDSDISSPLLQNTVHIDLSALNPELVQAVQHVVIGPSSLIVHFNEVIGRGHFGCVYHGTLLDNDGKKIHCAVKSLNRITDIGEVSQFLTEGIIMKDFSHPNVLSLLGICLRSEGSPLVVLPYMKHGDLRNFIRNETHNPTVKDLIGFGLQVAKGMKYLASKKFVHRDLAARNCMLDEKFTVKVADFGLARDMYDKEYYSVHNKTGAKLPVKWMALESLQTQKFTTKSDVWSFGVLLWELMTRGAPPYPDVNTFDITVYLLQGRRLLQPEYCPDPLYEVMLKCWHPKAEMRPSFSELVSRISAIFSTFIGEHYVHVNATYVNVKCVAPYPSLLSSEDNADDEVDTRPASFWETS

[2] = biological target: T3, human recombinant wild-type ALK kinase domain (amino acids 1093-1411) (Homo sapiens, UniProt Q9UM73); experiment: ALK enzyme assay 2 (microfluidic mobility shift assay); type: biochemical;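 also: kinase reaction run 1 h at room temperature, conversion quantified by electrophoretic separation of fluorescent peptide substrate from phosphorylated product, about 15-20% turnover without inhibitor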
T3 construct: ALK kinase domain (amino acids 1093-1411); made in house
T3 sequence (Q9UM73 1093-1411): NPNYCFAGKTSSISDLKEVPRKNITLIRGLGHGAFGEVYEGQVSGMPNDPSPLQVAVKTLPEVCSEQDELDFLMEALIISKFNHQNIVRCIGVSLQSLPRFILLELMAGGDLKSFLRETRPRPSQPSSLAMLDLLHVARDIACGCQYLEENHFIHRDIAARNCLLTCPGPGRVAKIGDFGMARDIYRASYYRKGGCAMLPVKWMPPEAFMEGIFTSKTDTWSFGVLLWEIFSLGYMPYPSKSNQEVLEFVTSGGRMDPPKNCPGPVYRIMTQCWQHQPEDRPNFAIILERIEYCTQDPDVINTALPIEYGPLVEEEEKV
Protocol: The reactions were incubated for 1 h at room temperature, stopped by the addition of 0.1 M EDTA, pH 8, and the extent of reactions (˜15-20% conversion with no inhibitor) was determined after electrophoretic separation of the fluorescently labeled peptide substrate and phosphorylated product on an LabChip EZ Reader II (Caliper Life Sciences, Hopkinton, Mass.).

T1 sequence (Q9UM73 19-1620): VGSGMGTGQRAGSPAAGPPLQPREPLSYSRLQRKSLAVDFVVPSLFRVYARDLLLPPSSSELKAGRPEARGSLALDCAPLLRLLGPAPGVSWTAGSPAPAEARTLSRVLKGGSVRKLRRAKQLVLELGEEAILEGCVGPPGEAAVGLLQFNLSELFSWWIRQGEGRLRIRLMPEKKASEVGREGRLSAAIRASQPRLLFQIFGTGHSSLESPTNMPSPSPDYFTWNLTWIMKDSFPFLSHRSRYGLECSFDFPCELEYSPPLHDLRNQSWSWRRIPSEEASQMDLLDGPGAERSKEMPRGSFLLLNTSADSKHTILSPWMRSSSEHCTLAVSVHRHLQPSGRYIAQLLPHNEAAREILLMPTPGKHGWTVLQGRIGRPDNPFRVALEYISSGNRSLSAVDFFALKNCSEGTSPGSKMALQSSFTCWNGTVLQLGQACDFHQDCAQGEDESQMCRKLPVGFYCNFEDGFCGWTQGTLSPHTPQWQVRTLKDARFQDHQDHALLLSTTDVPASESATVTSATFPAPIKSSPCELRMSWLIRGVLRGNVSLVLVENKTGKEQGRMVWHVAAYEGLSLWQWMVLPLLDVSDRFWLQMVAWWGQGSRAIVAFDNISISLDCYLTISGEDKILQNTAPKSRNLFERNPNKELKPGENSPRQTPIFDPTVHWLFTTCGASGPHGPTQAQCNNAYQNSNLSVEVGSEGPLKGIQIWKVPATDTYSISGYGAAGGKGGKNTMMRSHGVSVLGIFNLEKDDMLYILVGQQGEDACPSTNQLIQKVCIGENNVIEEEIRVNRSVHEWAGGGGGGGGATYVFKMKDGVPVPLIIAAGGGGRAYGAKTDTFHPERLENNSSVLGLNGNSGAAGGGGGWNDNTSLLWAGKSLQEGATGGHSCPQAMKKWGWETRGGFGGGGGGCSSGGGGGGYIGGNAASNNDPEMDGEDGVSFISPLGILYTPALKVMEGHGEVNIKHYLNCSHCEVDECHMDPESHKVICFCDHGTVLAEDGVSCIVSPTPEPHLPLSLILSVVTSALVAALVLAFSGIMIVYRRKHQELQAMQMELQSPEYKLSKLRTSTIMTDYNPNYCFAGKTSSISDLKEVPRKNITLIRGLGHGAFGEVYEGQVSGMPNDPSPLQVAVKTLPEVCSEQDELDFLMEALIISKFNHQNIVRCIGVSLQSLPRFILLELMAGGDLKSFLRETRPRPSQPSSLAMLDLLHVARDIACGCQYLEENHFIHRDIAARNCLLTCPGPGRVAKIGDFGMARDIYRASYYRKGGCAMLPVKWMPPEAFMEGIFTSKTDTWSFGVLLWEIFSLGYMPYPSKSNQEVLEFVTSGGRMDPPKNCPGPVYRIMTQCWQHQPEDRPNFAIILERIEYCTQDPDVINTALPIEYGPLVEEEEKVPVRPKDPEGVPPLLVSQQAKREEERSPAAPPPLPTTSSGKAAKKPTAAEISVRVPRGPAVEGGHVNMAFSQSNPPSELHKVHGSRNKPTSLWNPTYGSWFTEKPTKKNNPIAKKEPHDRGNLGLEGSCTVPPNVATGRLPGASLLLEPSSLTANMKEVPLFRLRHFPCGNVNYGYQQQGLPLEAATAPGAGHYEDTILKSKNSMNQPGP
EML4-ALK wt v1 in NIH-3T3 cells, sequence (Q9UM73 with tags, fused parts or gaps): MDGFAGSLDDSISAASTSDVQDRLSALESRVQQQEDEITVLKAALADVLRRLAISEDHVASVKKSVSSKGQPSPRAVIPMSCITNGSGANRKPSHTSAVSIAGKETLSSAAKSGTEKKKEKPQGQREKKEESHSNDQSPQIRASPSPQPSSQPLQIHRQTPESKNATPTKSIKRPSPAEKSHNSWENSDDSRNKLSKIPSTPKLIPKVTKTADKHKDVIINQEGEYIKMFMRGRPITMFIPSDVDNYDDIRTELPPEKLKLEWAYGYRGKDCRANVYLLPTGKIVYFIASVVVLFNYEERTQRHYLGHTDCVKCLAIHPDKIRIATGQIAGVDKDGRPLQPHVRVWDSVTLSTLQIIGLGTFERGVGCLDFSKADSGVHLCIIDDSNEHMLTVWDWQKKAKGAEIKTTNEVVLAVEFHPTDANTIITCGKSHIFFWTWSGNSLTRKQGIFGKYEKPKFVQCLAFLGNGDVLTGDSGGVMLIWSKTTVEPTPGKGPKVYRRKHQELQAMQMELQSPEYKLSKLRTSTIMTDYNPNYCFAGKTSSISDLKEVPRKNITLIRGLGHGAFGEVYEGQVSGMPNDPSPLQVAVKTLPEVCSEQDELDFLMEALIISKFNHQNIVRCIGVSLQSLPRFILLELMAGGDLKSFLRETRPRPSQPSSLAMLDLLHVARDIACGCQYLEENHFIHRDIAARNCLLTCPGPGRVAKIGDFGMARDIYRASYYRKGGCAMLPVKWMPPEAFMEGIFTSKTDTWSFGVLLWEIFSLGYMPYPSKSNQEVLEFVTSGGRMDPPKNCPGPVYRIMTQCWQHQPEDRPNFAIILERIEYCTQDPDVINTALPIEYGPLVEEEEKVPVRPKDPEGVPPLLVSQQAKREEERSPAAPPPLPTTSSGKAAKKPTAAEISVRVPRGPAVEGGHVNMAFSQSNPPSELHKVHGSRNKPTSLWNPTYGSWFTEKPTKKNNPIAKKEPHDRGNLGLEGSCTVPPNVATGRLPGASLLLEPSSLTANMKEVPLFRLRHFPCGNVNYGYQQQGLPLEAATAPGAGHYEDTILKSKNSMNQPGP

| SMILES | IC50 (ALK enzyme) | IC50 [1] | IC50 (cMet enzyme) | Ki [2] |
| --- | --- | --- | --- | --- |
| COc1ccc(F)cc1C(C)Oc1cc(-c2ncsc2CO)cnc1N (stereo not shown) [Example 13, (4-{6-amino-5-[1-(5-fluoro-2-methoxyphenyl)ethoxy]-pyridin-3-yl}-1,3-thiazol-5-yl)methanol] | 132 nM | 591 nM | > 20000 nM | 5.5 nM |
| CC(Oc1nc(-c2cn(C)cn2)cnc1N)c1cc(F)ccc1Cl (stereo not shown) [Example 59, 3-[1-(2-chloro-5-fluorophenyl)ethoxy]-5-(1-methyl-1H-imidazol-4-yl)pyrazin-2-amine] | 126 nM | 631 nM | > 20000 nM | 13 nM |
| COc1ccc(F)cc1C(C)Oc1cc(-c2c(OC)cnn2C)cnc1N (stereo not shown) [Example 16, 3-[1-(5-fluoro-2-methoxyphenyl)ethoxy]-5-(4-methoxy-1-methyl-1H-pyrazol-5-yl)pyridin-2-amine] | 38.1 nM | 123 nM | 11200 nM | 1.3 nM |
| CC(Oc1cc(-c2ccnn2C)cnc1N)c1cc(F)ccc1C#N (single isomer, unassigned) [Example 44] | 57 nM | 411 nM | 6480 nM | 6.9 nM |

From patent publication US8916593B2, “Alkoxy-substituted 2-aminopyridines as ALK inhibitors” (Pfizer Inc., priority 2010, dated 2014)
